Consider eight molecules from PubChem BioAssay (NCI).

Holding throughout (experiment): NCI tumour cell line growth inhibition, 48 h
In experiment [1] the test system is SK-MEL-2 melanoma.
Experiment [2] concerns UO-31 renal.
For experiment [3], the system named is KM12 colon.
Experiment [4] deals with M14 melanoma.
Experiment [5] relates to IGROV1 ovarian.
The test system of experiment [6] is SF-268 CNS.
Experiment [7] concerns UACC-62 melanoma.
The test system of experiment [8] is HCT-116 colon.
Experiment [9] concerns SK-MEL-5 melanoma.
For experiment [10], the system named is OVCAR-4 ovarian.

Each structure is given as a SMILES string. Where “and” joins values, the source holds several entries; their conditions need not be identical. Equal values may be shown once.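 Following 48 hours of exposure in 96-well plates, responses at five concentrations were used to interpolate endpoints linearly. GI50 is the concentration that inhibits growth by half. Definition used: TGI = concentration required for complete inhibition of growth.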 Bounds are passed on as bounds.

For the molecule `C[C@]12CC[C@@H]3c4ccc(O)cc4C(O)C[C@H]3[C@@H]1CCC2=O` (stereo partly drawn), the GI50 was more than 100000 nM in experiment [1]; 53800 nM in [2]; more than 100000 nM in experiment [3]; more than 100000 nM in experiment [4]; 58000 nM in experiment [5]; more than 100000 nM in experiment [6]. Further, the GI50 was more than 100000 nM in experiment [7], more than 100000 nM in experiment [8], more than 100000 nM in experiment [9] and 61100 nM in [10]. Further, the TGI in [1], in experiment [2], in experiment [3], in [4], in experiment [5] and in experiment [6] was more than 100000 nM throughout. For the same molecule, the TGI in [7], in experiment [8], in [9] and in [10] was more than 100000 nM each time.

With `CCC(c1cccc(O)c1)C(CC)c1cccc(O)c1` (stereo not drawn), the GI50 in [1] was 3960 nM; in [2], 4230 nM; in experiment [3] it was 3030 nM; in [4], 2930 nM; in experiment [5] it was 10800 nM; in [6], 5180 nM. For the same molecule, the GI50 is 3670 nM in experiment [7], 3660 nM in experiment [8], 1410 nM in [9] and 1210 nM in experiment [10]. In addition, the TGI in [1] was determined as 17200 nM; in experiment [2], 17800 nM; in experiment [3], 13600 nM; in experiment [4] it was 13200 nM; in experiment [5], 25300 nM; in [6], 20300 nM. Further, the TGI was 16000 nM in [7], 14500 nM in experiment [8], 3910 nM in [9] and 14300 nM in experiment [10].

As to `O=C1CC(=O)OC(c2ccc([N+](=O)[O-])cc2)O1`, the GI50 in [1] is 2310 nM; in experiment [2] it was 1640 nM; in experiment [3], 1950 nM; in [4] it was 1970 nM; in experiment [5], 3100 nM; in [6], 2930 nM. Besides, the GI50 in experiment [7] was 2140 nM; in [8], 1610 nM; in experiment [9], 1720 nM; in experiment [10], 2820 nM. Moreover, the TGI was found to be 5850 nM in experiment [1]; 3550 nM in [2]; 4030 nM in experiment [3]; 4000 nM in [4]; 14300 nM in experiment [5]; 11000 nM in experiment [6]. Also, the TGI amounted to 5540 nM in experiment [7], 3120 nM in experiment [8], 3390 nM in experiment [9] and 8910 nM in experiment [10].

`COC(=O)CCC1=C(C)/C(=C/c2[nH]c(-c3ccc[nH]3)cc2OC)N=C1C`: the GI50 is 273 nM in [1]; 556 nM in [2]; 389 nM in experiment [3]; 420 nM in experiment [4]; 1400 nM in experiment [5]; 708 nM in experiment [6]. Moreover, the GI50 in experiment [7] is 295 nM; in experiment [8] it was 331 nM; in [9] it was 96.5 nM; in [10], 626 nM. For the same molecule, the TGI in experiment [1] was determined as 813 nM; in experiment [2] it was 2920 nM; in experiment [3], 2390 nM; in [4], 1800 nM; in experiment [5] it was 12000 nM; in experiment [6] it was 7010 nM. The TGI in experiment [7] came out at 894 nM; in [8], 1410 nM; in experiment [9], 248 nM; in experiment [10], 2120 nM.

Consider `CC[C@@]1(O)C(=O)OCc2c1cc1n(c2=O)Cc2cc3cc(N)ccc3nc2-1`, for which the GI50 in experiment [1] was 528 nM and 311 nM; in experiment [2], 11.7 nM; in experiment [3], 232 nM; in experiment [4] it was 16.2 nM; in [5] it was 56 nM; in [7] it was 2.12 nM. For the same molecule, the GI50 was 23.8 nM in experiment [9]; 48 nM and 169 nM in [10]. Moreover, the TGI in [1] is 1580 nM; in [2], 169 nM and 35.8 nM; in [3], 2900 nM; in [4], 404 nM and 40.9 nM; in [5], 3060 nM and 2210 nM; in experiment [6], 1040 nM and 146 nM. The TGI in experiment [7] is 39.3 nM and < 21 nM; in experiment [8] it was 1650 nM; in experiment [9] it was 195 nM and 36.6 nM; in [10] it was 233 nM.

In the case of `CN=C1SC(=Nc2ccc(N(C)C)cc2)N1C`, the TGI was 76600 nM in [1]; more than 100000 nM in [2]; more than 100000 nM in [3]; more than 100000 nM in experiment [4]; more than 100000 nM in [5]; more than 100000 nM in experiment [6]. Besides, the TGI in [7], in experiment [8], in experiment [9] and in [10] was more than 100000 nM throughout.

As for `CCOc1ccccc1NC(=O)CCc1nc(=S)[nH][nH]1`, the TGI in experiment [1], in experiment [2], in experiment [3], in [4], in [5] and in experiment [6] was more than 100000 nM in each case. Moreover, the TGI in experiment [7], in experiment [8], in experiment [9] and in [10] was more than 100000 nM in each case.

As to `Cn1cc(CNCC2CCN(c3ncc(C(=O)NO)cn3)CC2)c2ccccc21`, the GI50 is less than 15.1 nM in experiment [1]; 24.7 nM in experiment [2]; 21.5 nM in experiment [3]; 11.4 nM in experiment [4]; 24.5 nM in [5]; 25.9 nM in experiment [6]. Moreover, the GI50 in experiment [7] is 11.8 nM; in experiment [8], less than 10 nM; in experiment [9], less than 10.8 nM; in [10] it was 15.5 nM. Besides, the TGI is 334 nM in [1]; 447 nM in experiment [2]; 589 nM in [3]; 1250 nM in [4]; 352 nM in [5]; 896 nM in experiment [6]. Also, the TGI was determined as 41.5 nM in [7], 32.8 nM in [8], 30.7 nM in [9] and 52100 nM in experiment [10].
